Test results: patent US20260285850A1, “SUBSTITUTED OXAZOLIDINONES AND IMIDAZOLINONES AS HERBICIDES” (FMC CORPORATION, priority 2023, published 2026)

Tests used:
Assay type in all cases: in vivo
[1] = tested on: barnyardgrass (Echinochloa crusgalli); assay: Test B flooded paddy test, visual plant response rating 0-100; conditions: 250 g ai/ha, Flood, applied to paddy water, evaluated after 13 days
How it was run: (§1)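 Each species was raised to two leaves before flooding to a 3 cm depth and dosing the water with compound. Injury was assessed by eye after 13 days under greenhouse conditions.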

rice (Oryza sativa) = assay: as above; conditions: 250 g ai/ha, Flood, applied to paddy water, evaluated after 13 days
How it was run: as §1

[2] = tested on: sedge, umbrella (small-flower umbrella sedge, Cyperus difformis); assay: as above; conditions: 250 g ai/ha, Flood, applied to paddy water, evaluated after 13 days
How it was run: as §1

[3] = tested on: ducksalad (Heteranthera limosa); assay: as above; conditions: 250 g ai/ha, Flood, applied to paddy water, evaluated after 13 days
How it was run: as §1

kochia (Bassia scoparia) [4] = assay: Test A preemergence soil spray, visual injury rating 0-100; conditions: 10 days, 0 = no effect, 100 = complete control
How it was run: (§2)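 Grow plants in loam soil blended with sand. Apply formulated compound (non-phytotoxic solvent, surfactant) as a directed soil spray before emergence, or to plants at the one- to two-leaf stage after emergence. Hold in greenhouse 10 days, then rate injury visually versus untreated controls on a 0-100 scale.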

[5] = tested on: ryegrass, Italian (italian ryegrass, Lolium multiflorum); assay: as above; conditions: 10 days, 0 = no effect, 100 = complete control
How it was run: as §2

corn (Zea mays) [6] = assay: as above; conditions: 10 days, 0 = no effect, 100 = complete control
How it was run: as §2

[7] = tested on: green foxtail (Setaria viridis); assay: as above; conditions: 10 days, 0 = no effect, 100 = complete control
How it was run: as §2

[8] = tested on: barnyardgrass (Echinochloa crus-galli); assay: as above; conditions: 10 days, 0 = no effect, 100 = complete control
How it was run: as §2

soybean (Glycine max) [9] = assay: as above; conditions: 10 days, 0 = no effect, 100 = complete control
How it was run: as §2

[10] = tested on: wheat (Triticum aestivum); assay: as above; conditions: 10 days, 0 = no effect, 100 = complete control
How it was run: as §2

[11] = tested on: oat, wild (wild oat, Avena fatua); assay: as above; conditions: 10 days, 0 = no effect, 100 = complete control
How it was run: as §2

[12] = tested on: blackgrass (Alopecurus myosuroides); assay: as above; conditions: 10 days, 0 = no effect, 100 = complete control
How it was run: as §2

[13] = tested on: palmer (palmer amaranth, palmer pigweed, Amaranthus palmeri); assay: as above; conditions: 10 days, 0 = no effect, 100 = complete control
How it was run: as §2

kochia (Bassia scoparia) [14] = assay: Test A postemergence application, visual injury rating 0-100; conditions: Postemergence, 10 days, 0 is no effect, 100 is complete control
How it was run: as §2

[15] = tested on: ryegrass, Italian (italian ryegrass, Lolium multiflorum); assay: as above; conditions: Postemergence, 10 days, 0 is no effect, 100 is complete control
How it was run: as §2

corn (Zea mays) [16] = assay: as above; conditions: Postemergence, 10 days, 0 is no effect, 100 is complete control
How it was run: as §2

[17] = tested on: galium (catchweed bedstraw, Galium aparine); assay: as above; conditions: Postemergence, 10 days, 0 is no effect, 100 is complete control
How it was run: as §2

[18] = tested on: green foxtail (Setaria viridis); assay: as above; conditions: Postemergence, 10 days, 0 is no effect, 100 is complete control
How it was run: as §2

[19] = tested on: barnyardgrass (Echinochloa crus-galli); assay: as above; conditions: Postemergence, 10 days, 0 is no effect, 100 is complete control
How it was run: as §2

soybean (Glycine max) [20] = assay: as above; conditions: Postemergence, 10 days, 0 is no effect, 100 is complete control
How it was run: as §2

[21] = tested on: wheat (Triticum aestivum); assay: as above; conditions: Postemergence, 10 days, 0 is no effect, 100 is complete control
How it was run: as §2

[22] = tested on: oat, wild (wild oat, Avena fatua); assay: as above; conditions: Postemergence, 10 days, 0 is no effect, 100 is complete control
How it was run: as §2

[23] = tested on: blackgrass (Alopecurus myosuroides); assay: as above; conditions: Postemergence, 10 days, 0 is no effect, 100 is complete control
How it was run: as §2

[24] = tested on: ragweed (common ragweed, Ambrosia artemisiifolia); assay: as above; conditions: Postemergence, 10 days, 0 is no effect, 100 is complete control
How it was run: as §2

[25] = tested on: palmer (palmer amaranth, palmer pigweed, Amaranthus palmeri); assay: as above; conditions: Postemergence, 10 days, 0 is no effect, 100 is complete control
How it was run: as §2

[26] = tested on: horseweed (Erigeron canadensis); assay: as above; conditions: Postemergence, 10 days, 0 is no effect, 100 is complete control
How it was run: as §2

COCCOC(=O)C1C=CC(NC(=O)C2(C)CN(c3cc(F)cc(F)c3)C(=O)O2)C1 (centres unmarked) [Compound 36]
Plant response rating, Barnyardgrass (0 to 100 scale, 0 is no effect and 100 is complete control) [1]: 60
Plant response rating, Rice (0 to 100 scale, 0 is no effect and 100 is complete control) (rice (Oryza sativa)): 55
Plant response rating, Sedge, Umbrella (0 to 100 scale, 0 is no effect and 100 is complete control) [2]: 95
Plant response rating, Ducksalad (0 to 100 scale, 0 is no effect and 100 is complete control) [3]: 90
Kochia plant response rating (0 to 100 scale) (kochia (Bassia scoparia) [4]; 125 g ai/ha): 90
Kochia plant response rating (0 to 100 scale) (kochia (Bassia scoparia) [4]; 500 g ai/ha): 100
Ryegrass, Italian plant response rating (0 to 100 scale) ([5]; 125 g ai/ha): 100
Ryegrass, Italian plant response rating (0 to 100 scale) ([5]; 500 g ai/ha): 100
Corn plant response rating (0 to 100 scale) (corn (Zea mays) [6]; 125 g ai/ha): 90
Corn plant response rating (0 to 100 scale) (corn (Zea mays) [6]; 500 g ai/ha): 90
Foxtail, Green plant response rating (0 to 100 scale) ([7]; 125 g ai/ha): 100
Foxtail, Green plant response rating (0 to 100 scale) ([7]; 500 g ai/ha): 100
Barnyardgrass plant response rating (0 to 100 scale) ([8]; 125 g ai/ha): 100
Barnyardgrass plant response rating (0 to 100 scale) ([8]; 500 g ai/ha): 100
Soybean plant response rating (0 to 100 scale) (soybean (Glycine max) [9]; 125 g ai/ha): 60
Soybean plant response rating (0 to 100 scale) (soybean (Glycine max) [9]; 500 g ai/ha): 80
Wheat plant response rating (0 to 100 scale) ([10]; 125 g ai/ha): 90
Wheat plant response rating (0 to 100 scale) ([10]; 500 g ai/ha): 100
Oat, Wild plant response rating (0 to 100 scale) ([11]; 125 g ai/ha): 90
Oat, Wild plant response rating (0 to 100 scale) ([11]; 500 g ai/ha): 90
Blackgrass plant response rating (0 to 100 scale) ([12]; 125 g ai/ha): 80
Blackgrass plant response rating (0 to 100 scale) ([12]; 500 g ai/ha): 100
Amaranth, Palmer plant response rating (0 to 100 scale) ([13]; 125 g ai/ha): 80
Amaranth, Palmer plant response rating (0 to 100 scale) ([13]; 500 g ai/ha): 100
Kochia plant response rating (0 to 100 scale) (kochia (Bassia scoparia) [14]; 125 g ai/ha): 60
Kochia plant response rating (0 to 100 scale) (kochia (Bassia scoparia) [14]; 500 g ai/ha): 70
Ryegrass, Italian plant response rating (0 to 100 scale) ([15]; 125 g ai/ha): 90
Ryegrass, Italian plant response rating (0 to 100 scale) ([15]; 500 g ai/ha): 80
Corn plant response rating (0 to 100 scale) (corn (Zea mays) [16]; 125 g ai/ha): 100
Corn plant response rating (0 to 100 scale) (corn (Zea mays) [16]; 500 g ai/ha): 100
Galium plant response rating (0 to 100 scale) ([17]; 125 g ai/ha): 70
Galium plant response rating (0 to 100 scale) ([17]; 500 g ai/ha): 80
Foxtail, Green plant response rating (0 to 100 scale) ([18]; 125 g ai/ha): 80
Foxtail, Green plant response rating (0 to 100 scale) ([18]; 500 g ai/ha): 90
Barnyardgrass plant response rating (0 to 100 scale) ([19]; 125 g ai/ha): 100
Barnyardgrass plant response rating (0 to 100 scale) ([19]; 500 g ai/ha): 100
Soybean plant response rating (0 to 100 scale) (soybean (Glycine max) [20]; 125 g ai/ha): 70
Soybean plant response rating (0 to 100 scale) (soybean (Glycine max) [20]; 500 g ai/ha): 80
Wheat plant response rating (0 to 100 scale) ([21]; 125 g ai/ha): 70
Wheat plant response rating (0 to 100 scale) ([21]; 500 g ai/ha): 80
Oat, Wild plant response rating (0 to 100 scale) ([22]; 125 g ai/ha): 90
Oat, Wild plant response rating (0 to 100 scale) ([22]; 500 g ai/ha): 100
Blackgrass plant response rating (0 to 100 scale) ([23]; 125 g ai/ha): 100
Blackgrass plant response rating (0 to 100 scale) ([23]; 500 g ai/ha): 100
Ragweed plant response rating (0 to 100 scale) ([24]; 125 g ai/ha): 60
Ragweed plant response rating (0 to 100 scale) ([24]; 500 g ai/ha): 80
Amaranth, Palmer / Pigweed, Palmer plant response rating (0 to 100 scale) ([25]; 125 g ai/ha): 60
Amaranth, Palmer / Pigweed, Palmer plant response rating (0 to 100 scale) ([25]; 500 g ai/ha): 100
Horseweed plant response rating (0 to 100 scale) ([26]; 125 g ai/ha): 70
Horseweed plant response rating (0 to 100 scale) ([26]; 500 g ai/ha): 90
